Data published in PubChem BioAssay AID248 (DTP/NCI, 2004).
Values joined by “and” are separate entries in the source; they are usually repeats but may differ in a detail not shown here. Equal values may be shown once. Toxic doses and inconclusive results are not listed.

System: L1210 leukemia ip in BDF1 mice, survival T/C
Test: NCI In Vivo Anticancer Drug Screen. Data for tumor model L1210 Leukemia (intraperitoneal) in B6D2F1 (BDF1) mice
Settings: endpoint: mean survival time, higher = longer survival
In short: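 Mice bearing the transplanted tumor received compound or vehicle. Survival of the treated group was divided by that of the vehicle-treated control group to give the ratio.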

[1] = dose: 100.0 mg/kg/injection, schedule: Q04DX003 (ip), vehicle: saline with Tween-80
[2] = dose: 200.0 mg/kg/injection, schedule: Q04DX003 (ip), vehicle: saline with Tween-80
[3] = dose: 400.0 mg/kg/injection, schedule: Q04DX003 (ip), vehicle: saline with Tween-80
[4] = dose: 100.0 mg/kg/injection, schedule: Q01DX001 (ip), vehicle: carboxymethylcellulose (CMC)
[5] = dose: 200.0 mg/kg/injection, schedule: Q01DX001 (ip), vehicle: carboxymethylcellulose (CMC)
[6] = dose: 100.0 mg/kg/injection, schedule: Q01DX001 (ip), vehicle: saline with Tween-80
[7] = dose: 100.0 mg/kg/injection, schedule: Q04DX003 (ip), vehicle: Klucel (hydroxypropylcellulose) (HPC)
[8] = dose: 400.0 mg/kg/injection, schedule: Q04DX003 (ip), vehicle: Klucel (hydroxypropylcellulose) (HPC)

O=C(CCCCn1cnc2c(=S)nc[nH]c21)Nc1ccc(C(=O)O)cc1
T/C (dose: 50.0 mg/kg/injection, schedule: Q01DX Z (ip), vehicle: carboxymethylcellulose (CMC)): 101 % of control
T/C (dose: 100.0 mg/kg/injection, schedule: Q01DX Z (ip), vehicle: carboxymethylcellulose (CMC)): 95 % of control
T/C (dose: 200.0 mg/kg/injection, schedule: Q01DX Z (ip), vehicle: carboxymethylcellulose (CMC)): 104 % of control
T/C (dose: 400.0 mg/kg/injection, schedule: Q01DX Z (ip), vehicle: carboxymethylcellulose (CMC)): 96 % of control

CCOC(=O)C1=C(C)N(Cc2ccccc2)C(C)=C(C(=O)OCC)C1(C)C
T/C [1]: 101 % of control
T/C [2]: 98 % of control
T/C [3]: 106 % of control

OCC1SC(O)C(O)C(O)C1O (centres undefined)
T/C (dose: 50.0 mg/kg/injection, schedule: Q01DX009 (ip), vehicle: saline): 102 % of control
T/C (dose: 50.0 mg/kg/injection, schedule: Q01DX009 (oral), vehicle: saline): 100 % of control
T/C (dose: 100.0 mg/kg/injection, schedule: Q01DX009 (ip), vehicle: saline): 102 % of control
T/C (dose: 100.0 mg/kg/injection, schedule: Q01DX009 (oral), vehicle: saline): 102 % of control
T/C (dose: 200.0 mg/kg/injection, schedule: Q01DX009 (ip), vehicle: saline): 112 % of control
T/C (dose: 200.0 mg/kg/injection, schedule: Q01DX009 (oral), vehicle: saline): 98 % of control
T/C (dose: 400.0 mg/kg/injection, schedule: Q01DX009 (ip), vehicle: saline): 109 % of control
T/C (dose: 400.0 mg/kg/injection, schedule: Q01DX009 (oral), vehicle: saline): 96 % of control

CN(C)C1C2(C)CCC(C2)C1(C)C (centres undefined)
T/C (dose: 5.0 mg/kg/injection, schedule: Q01DX001 (ip), vehicle: carboxymethylcellulose (CMC)): 101 % of control
T/C (dose: 10.0 mg/kg/injection, schedule: Q01DX001 (ip), vehicle: carboxymethylcellulose (CMC)): 98 % of control
T/C (dose: 20.0 mg/kg/injection, schedule: Q01DX001 (ip), vehicle: carboxymethylcellulose (CMC)): 98 % of control
T/C (dose: 40.0 mg/kg/injection, schedule: Q01DX001 (ip), vehicle: carboxymethylcellulose (CMC)): 95 % of control

CCCCCC(O)(CCCC)CCCC
T/C [4]: 104 % of control
T/C [5]: 107 % of control
T/C (dose: 400.0 mg/kg/injection, schedule: Q01DX001 (ip), vehicle: carboxymethylcellulose (CMC)): 102 % of control

CCOC(=O)/C(O)=C\c1cc(Cl)nnc1Cl
T/C (dose: 162.5 mg/kg/injection, schedule: Q04DX002 (ip), vehicle: Klucel (hydroxypropylcellulose) (HPC)): 100 % of control
T/C (dose: 325.0 mg/kg/injection, schedule: Q04DX002 (ip), vehicle: Klucel (hydroxypropylcellulose) (HPC)): 95 % of control

COC(=O)C(N)Cc1ccc(O)c(N(CCCl)CCCl)c1 (centres undefined)
T/C (dose: 0.01 mg/kg/injection, schedule: Q01DX009 (ip), vehicle: saline): 116 % of control
T/C (dose: 0.25 mg/kg/injection, schedule: Q01DX009 (ip), vehicle: saline): 205 % of control
T/C (dose: 0.5 mg/kg/injection, schedule: Q01DX009 (ip), vehicle: saline): 204 % of control
T/C (dose: 1.0 mg/kg/injection, schedule: Q01DX009 (ip), vehicle: saline): 194 % of control
T/C (dose: 2.5 mg/kg/injection, schedule: Q01DX001 (ip), vehicle: saline): 116 % of control
T/C (dose: 5.0 mg/kg/injection, schedule: Q01DX001 (ip), vehicle: saline): 168 % of control
T/C (dose: 10.0 mg/kg/injection, schedule: Q01DX001 (ip), vehicle: saline): 213 % of control

O=C1OC(=O)C2C1C1C3C=CC3C1C21C=C1 (centres undefined)
T/C (dose: 100.0 mg/kg/injection, schedule: Q01DX009 (ip), vehicle: other): 100 % of control
T/C (dose: 100.0 mg/kg/injection, schedule: Q04DX003 (ip), vehicle: saline): 96 % of control
T/C (dose: 200.0 mg/kg/injection, schedule: Q01DX009 (ip), vehicle: other): 109 % of control
T/C (dose: 200.0 mg/kg/injection, schedule: Q04DX003 (ip), vehicle: saline): 93 % of control
T/C (dose: 400.0 mg/kg/injection, schedule: Q01DX009 (ip), vehicle: other): 110 % of control
T/C (dose: 400.0 mg/kg/injection, schedule: Q04DX003 (ip), vehicle: saline): 100 % of control

O=C1CCN(Cc2ccco2)C(=S)N1
T/C (dose: 25.0 mg/kg/injection, schedule: Q01DX Z (ip), vehicle: methylcellulose (MC)): 101 % of control
T/C (dose: 50.0 mg/kg/injection, schedule: Q01DX Z (ip), vehicle: methylcellulose (MC)): 97 % of control

O=C(O)c1ccsc1C(=O)c1ccccc1
T/C [6]: 105 % of control
T/C (dose: 200.0 mg/kg/injection, schedule: Q01DX001 (ip), vehicle: saline with Tween-80): 102 % of control
T/C (dose: 400.0 mg/kg/injection, schedule: Q01DX001 (ip), vehicle: saline with Tween-80): 97 % of control

CCC(C(=O)O)N1C(=O)C2C3C=CC(C3)C2C1=O (centres undefined)
T/C [1]: 94 % of control and 96 % of control
T/C [2]: 96 % of control and 105 % of control
T/C [3]: 105 % of control

O=c1[nH]cnc2[nH]ncc12
T/C (dose: 50.0 mg/kg/injection, schedule: Q01DX001 (ip), vehicle: saline with Tween-80): 95 % of control
T/C (dose: 69.0 mg/kg/injection, schedule: Q01DX015 (ip), vehicle: carboxymethylcellulose (CMC)): 94 % of control
T/C [4]: 106 % of control
T/C [6]: 105 % of control
T/C (dose: 100.0 mg/kg/injection, schedule: Q01DX001 (ip), vehicle: saline): 101 % of control
T/C (dose: 104.0 mg/kg/injection, schedule: Q01DX015 (ip), vehicle: carboxymethylcellulose (CMC)): 95 % of control
T/C (dose: 156.0 mg/kg/injection, schedule: Q01DX015 (ip), vehicle: carboxymethylcellulose (CMC)): 96 % of control
T/C [5]: 102 % of control
T/C (dose: 234.0 mg/kg/injection, schedule: Q01DX015 (ip), vehicle: carboxymethylcellulose (CMC)): 94 % of control
T/C (dose: 351.0 mg/kg/injection, schedule: Q01DX015 (ip), vehicle: carboxymethylcellulose (CMC)): 95 % of control

O=C(CC(O)(C(F)(F)F)C(F)(F)F)c1cccc2ccccc12
T/C [7]: 97 % of control
T/C (dose: 200.0 mg/kg/injection, schedule: Q04DX003 (ip), vehicle: Klucel (hydroxypropylcellulose) (HPC)): 90 % of control
T/C [8]: 90 % of control

O=C(NCCCOc1ccccc1)NCCc1ccc(Cl)c(Cl)c1
T/C (dose: 100.0 mg/kg/injection, schedule: Q01DX001 (ip), vehicle: gum acacia): 99 % of control
T/C (dose: 200.0 mg/kg/injection, schedule: Q01DX001 (ip), vehicle: gum acacia): 94 % of control
T/C (dose: 400.0 mg/kg/injection, schedule: Q01DX001 (ip), vehicle: gum acacia): 91 % of control

O=C1c2ccccc2-c2cc(-c3ccccc3)cc(-c3ccccc3)c21
T/C (dose: 100.0 mg/kg/injection, schedule: Q01DX009 (ip), vehicle: Klucel (hydroxypropylcellulose) (HPC)): 96 % of control
T/C [7]: 104 % of control
T/C (dose: 200.0 mg/kg/injection, schedule: Q01DX009 (ip), vehicle: Klucel (hydroxypropylcellulose) (HPC)): 92 % of control
T/C (dose: 400.0 mg/kg/injection, schedule: Q01DX009 (ip), vehicle: Klucel (hydroxypropylcellulose) (HPC)): 94 % of control
T/C [8]: 88 % of control

c1ccc2n[nH]nc2c1
T/C (dose: 50.0 mg/kg/injection, schedule: Q04DX002 (ip), vehicle: saline with Tween-80): 95 % of control
T/C (dose: 100.0 mg/kg/injection, schedule: Q04DX002 (ip), vehicle: saline with Tween-80): 106 % of control
T/C (dose: 200.0 mg/kg/injection, schedule: Q04DX002 (ip), vehicle: saline with Tween-80): 98 % of control

NC(=O)c1cc(=O)n(C2OC(CO)C(O)C2O)c2ncnc(N)c12 (centres undefined)
T/C (dose: 12.5 mg/kg/injection, schedule: Q01DX005 (ip), vehicle: water): 104 % of control
T/C (dose: 25.0 mg/kg/injection, schedule: Q01DX005 (ip), vehicle: water): 90 % of control
T/C (dose: 50.0 mg/kg/injection, schedule: Q01DX005 (ip), vehicle: water): 95 % of control
T/C (dose: 100.0 mg/kg/injection, schedule: Q01DX005 (ip), vehicle: water): 98 % of control
T/C (dose: 200.0 mg/kg/injection, schedule: Q01DX005 (ip), vehicle: water): 95 % of control

CN=C(NC)c1cccc(NC(=O)c2cccc(C(=O)Nc3cccc(C(=NC)NC)c3)c2)c1
T/C (dose: 4.4 mg/kg/injection, schedule: Q01DX Z (ip), vehicle: carboxymethylcellulose (CMC)): 96 % of control
T/C (dose: 6.6 mg/kg/injection, schedule: Q01DX Z (ip), vehicle: carboxymethylcellulose (CMC)): 98 % of control
T/C (dose: 10.0 mg/kg/injection, schedule: Q01DX Z (ip), vehicle: carboxymethylcellulose (CMC)): 96 % of control
T/C (dose: 15.0 mg/kg/injection, schedule: Q01DX Z (ip), vehicle: carboxymethylcellulose (CMC)): 93 % of control and 98 % of control
T/C (dose: 22.0 mg/kg/injection, schedule: Q01DX Z (ip), vehicle: carboxymethylcellulose (CMC)): 94 % of control
